Results from US20200197266A1, “MICROGELS FOR THE DELIVERY OF COSMETIC ACTIVE ORGANIC SUBSTANCES” (LVMH RECHERCHE, priority 2017, published 2020).
Values after ≈ are worked out from the molar mass of the structure shown. Like-named read-outs stand apart in the source and are kept apart here.

What was measured:
[1] = cited from earlier work
[2] = In vitro release of cosmetic active molecules from loaded microgels by a dialysis method; details: 35% ethanol in dialysate medium, pH 6, 25° C.
Method: The study of active molecules release kinetics was carried out by a dialysis method in order to verify that no microgel diffusion occur in dialysate medium (that may also be called “release medium”), and in order to observe the cosmetic active molecule release profile against time.
For that, active molecules-loaded microgel particle dispersions (1 mg/mg microgel) were dialyzed against a dialysate medium. Diffusion of the cosmetic active molecule from the loaded-microgel dispersion medium to the dialysate medium is observed, until an equilibrium concentration is reached between both media.
Loaded-microgel particles comprising an active molecule in an amount of 1 mg/(mg unloaded microgel) were placed inside a dialysis tube and dialyzed in different buffered dialysate media (having different pH, having different temperature, containing a solvent and/or containing a surfactant). The buffered dialysate medium can contain ethanol, citric acid, sodium phosphate dibasic or/and polyoxyethylene monooleate sorbitan (also named Polysorbate 80, Tween® 80 or INCI […]). Active substance concentration in the dialysate medium was determined by UV-Vis.
The effect of temperature on the release kinetics of active molecules was investigated with the dialysate method maintaining pH of the dialysate medium constant at 4.5. The in vitro release was studied at two different temperatures: 25° C. […]

[3] = cited from earlier work; remark: listed apart in the source

Molecule	Solubility in water ([1]; at 25° C.)	Solubility in ethanol [1]	Incubation time in which 100% is released [2]	Solubility in water [1]	pKa [3]
CC(C)=CCCC(C)CCO (stereo not shown) [Citronellol, 3,7-dimethyloct-6-en-1-ol]	200 µg/mL (≈ 1280 µM)	very soluble in ethanol			
CCCCC(CC)COC(=O)c1ccccc1O (stereo not shown) [Escalol, 2-ethylhexyl salicylate]		soluble in ethanol	≤ 6 h	slighty soluble in water	
O=C(O)c1ccccc1O [Salicylic acid, 2-Hydroxybenzoic acid, reference compound]		soluble in ethanol			
CCCCCCOC(=O)c1ccccc1C(=O)c1ccc(N(CC)CC)cc1O [Uvinul-A, hexyl 2-[4-(diethylamino)-2-hydroxybenzoyl]benzoate]		soluble in ethanol		insoluble in water	
Hyaluronic acid				soluble in water	3
